Data published in the supplement of paper PMC5908809.

Tests used:
[1] = test system: normal NK cells expanded with K562-aAPC; assay: percent inhibition of viability; higher = more inhibition; details: 72 h, IL-2 2.5 ng/mL
Description: (§1)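 Drug sensitivity and resistance testing on K562-aAPC-expanded normal NK cells: 5 concentrations (10-fold steps over a 10,000-fold range), 72 h at 37 °C, viability by CellTiter-Glo normalised to DMSO and benzethonium chloride controls; DSS from the fitted curve.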

[2] = test system: normal primary NK cells, pool 1 (3 donors), resting (IL-2 0 ng/mL); assay: as above; details: 72 h
[3] = test system: normal primary NK cells, pool 1 (3 donors) (IL-2 2.5 ng/mL); assay: as above; details: 72 h
IMC-1 (IL-2 20 ng/mL) [4] = assay: as above; details: 72 h
KAI3 (IL-2 2.5 ng/mL) [5] = assay: as above; details: 72 h
NK-YS (IL-2 2.5 ng/mL) [6] = assay: as above; details: 72 h
NKL (IL-2 2.5 ng/mL) [7] = assay: as above; details: 72 h
DERL-7 (IL-2 2.5 ng/mL) [8] = assay: as above; details: 72 h
KHYG-1 (IL-2 2.5 ng/mL) [9] = assay: as above; details: 72 h
YT (IL-2 2.5 ng/mL) [10] = assay: as above; details: 72 h
[11] = test system: normal primary NK cells, pool 3 (3 donors) (IL-2 2.5 ng/mL); assay: as above; details: 72 h
SNK-6 (IL-2 2.5 ng/mL) [12] = assay: as above; details: 72 h
NK-92 (IL-2 2.5 ng/mL) [13] = assay: as above; details: 72 h
[14] = test system: normal primary NK cells, pool 2 (3 donors) (IL-2 2.5 ng/mL); assay: as above; details: 72 h
[15] = test system: normal NK cells expanded with K562-aAPC; assay: drug sensitivity score (DSS) (DSS units); higher = more sensitive; extreme values may be limits of the assay; details: 72 h; IL-2 2.5 ng/mL
Description: as §1

[16] = test system: normal primary NK cells, pool 1 (3 donors), resting (IL-2 0 ng/mL); assay: as above; details: 72 h
[17] = test system: normal primary NK cells, pool 1 (3 donors) (IL-2 2.5 ng/mL); assay: as above; details: 72 h
IMC-1 (IL-2 20 ng/mL) [18] = assay: as above; details: 72 h
KAI3 (IL-2 2.5 ng/mL) [19] = assay: as above; details: 72 h
NK-YS (IL-2 2.5 ng/mL) [20] = assay: as above; details: 72 h
NKL (IL-2 2.5 ng/mL) [21] = assay: as above; details: 72 h
DERL-7 (IL-2 2.5 ng/mL) [22] = assay: as above; details: 72 h
KHYG-1 (IL-2 2.5 ng/mL) [23] = assay: as above; details: 72 h
YT (IL-2 2.5 ng/mL) [24] = assay: as above; details: 72 h
[25] = test system: normal primary NK cells, pool 3 (3 donors) (IL-2 2.5 ng/mL); assay: as above; details: 72 h
SNK-6 (IL-2 2.5 ng/mL) [26] = assay: as above; details: 72 h
NK-92 (IL-2 2.5 ng/mL) [27] = assay: as above; details: 72 h
[28] = test system: normal primary NK cells, pool 2 (3 donors) (IL-2 2.5 ng/mL); assay: as above; details: 72 h

CN1CCN(CCOc2cc(OC3CCOCC3)c3c(Nc4c(Cl)ccc5c4OCO5)ncnc3c2)CC1 [Saracatinib] (max concentration tested 10000 nM)
percent inhibition of viability [%]
Details | 1 nM | 10 nM | 100 nM | 1000 nM | 10000 nM
DERL-7 (IL-2 2.5 ng/mL) [8] | -0.15 | 1.98 | 7.09 | 17.7 | 74.7
IMC-1 (IL-2 20 ng/mL) [4] | -4.77 | -2.25 | -2.36 | -0.89 | 100
KAI3 (IL-2 2.5 ng/mL) [5] | -1.92 | -9.84 | -6.46 | 7.42 | 56.8
KHYG-1 (IL-2 2.5 ng/mL) [9] | -5.13 | -8 | -4.22 | 0.25 | 77.8
NK-92 (IL-2 2.5 ng/mL) [13] | -2.32 | 4.14 | 9.55 | 18.4 | 68.4
NK-YS (IL-2 2.5 ng/mL) [6] | -1.8 | -3.94 | -0.18 | 5.62 | 51.1
NKL (IL-2 2.5 ng/mL) [7] | -14.8 | -18.5 | -9.99 | -5.02 | 48.9
SNK-6 (IL-2 2.5 ng/mL) [12] | -3.28 | -15.1 | -18 | -41.3 | 21.7
YT (IL-2 2.5 ng/mL) [10] | -2.96 | -2.67 | -0.94 | 26.4 | 68.2
[1] | -1.72 | -3.19 | 2.46 | 6.91 | 94.3
[2] | -9.8 | 15.2 | 16.2 | 24 | 85.8
[3] | -9.24 | 11.2 | 7.65 | -4.55 | 45.9
[11] | -6.07 | 9.22 | 9.63 | -17.2 | 0.69
[14] | -0.71 | -2.6 | 6.1 | -10.6 | 9.82

Details | drug sensitivity score
DERL-7 (IL-2 2.5 ng/mL) [22] | 6.92
IMC-1 (IL-2 20 ng/mL) [18] | 5.54
KAI3 (IL-2 2.5 ng/mL) [19] | 4.31
KHYG-1 (IL-2 2.5 ng/mL) [23] | 4.35
NK-92 (IL-2 2.5 ng/mL) [27] | 6.22
NK-YS (IL-2 2.5 ng/mL) [20] | 3.64
NKL (IL-2 2.5 ng/mL) [21] | 2.2
SNK-6 (IL-2 2.5 ng/mL) [26] | 0.27
YT (IL-2 2.5 ng/mL) [24] | 7.37
[15] | 6.3
[16] | 7.66
[17] | 2.04
[25] | 0
[28] | 0

CC[C@H](CO)Nc1nc(NCc2ccccc2)c2ncn(C(C)C)c2n1 [Seliciclib] (max concentration tested 10000 nM)
percent inhibition of viability [%]
Details | 1 nM | 10 nM | 100 nM | 1000 nM | 10000 nM
DERL-7 (IL-2 2.5 ng/mL) [8] | -1.96 | 7.05 | 6.82 | 0.8 | 33.1
IMC-1 (IL-2 20 ng/mL) [4] | -6.54 | -8.7 | -1.13 | 2.41 | 13.2
KAI3 (IL-2 2.5 ng/mL) [5] | -1.01 | -9.53 | -1.56 | 6.38 | 67.1
KHYG-1 (IL-2 2.5 ng/mL) [9] | 4.31 | -8.69 | -4.34 | 1.22 | 18.6
NK-92 (IL-2 2.5 ng/mL) [13] | -2.72 | -1.58 | -0.03 | 23.2 | 39.9
NK-YS (IL-2 2.5 ng/mL) [6] | 8.26 | -2 | -1.62 | 7.11 | 38.7
NKL (IL-2 2.5 ng/mL) [7] | -8.83 | -15.7 | -16.8 | 10.3 | 41.6
SNK-6 (IL-2 2.5 ng/mL) [12] | -14.8 | -13.5 | -3.42 | -23.2 | 23.9
YT (IL-2 2.5 ng/mL) [10] | 2.72 | -5.9 | -1.61 | 9.31 | 53.2
[1] | -5.19 | -1.17 | -5.63 | 3.89 | 27.1
[2] | -1.46 | -6.05 | 15.1 | 7.69 | 9.97
[3] | -1.6 | -3.91 | 11.5 | 8.66 | 32.8
[11] | 0.36 | 1.61 | 11.3 | -0.47 | 17.9
[14] | -12.7 | -4.83 | 5.97 | 1.18 | 33.5

Details | drug sensitivity score
DERL-7 (IL-2 2.5 ng/mL) [22] | 1.62
IMC-1 (IL-2 20 ng/mL) [18] | 0.28
KAI3 (IL-2 2.5 ng/mL) [19] | 4.72
KHYG-1 (IL-2 2.5 ng/mL) [23] | 0.62
NK-92 (IL-2 2.5 ng/mL) [27] | 4.81
NK-YS (IL-2 2.5 ng/mL) [20] | 3.07
NKL (IL-2 2.5 ng/mL) [21] | 3.69
SNK-6 (IL-2 2.5 ng/mL) [26] | 0.43
YT (IL-2 2.5 ng/mL) [24] | 4.39
[15] | 1.71
[16] | 2.43
[17] | 2.2
[25] | 0.41
[28] | 1.7

COc1ccc(COc2cc3oc(=O)c4cc(C(C)O)ccc4c3cc2OC)cc1 (configuration not stated) [Palomid-529] (max concentration tested 10000 nM)
percent inhibition of viability [%]
Details | 1 nM | 10 nM | 100 nM | 1000 nM | 10000 nM
DERL-7 (IL-2 2.5 ng/mL) [8] | -6.43 | -4.11 | -0.12 | 1.25 | 21.1
IMC-1 (IL-2 20 ng/mL) [4] | -5.32 | -4.51 | 2.75 | 4.92 | 7.18
KAI3 (IL-2 2.5 ng/mL) [5] | -1.34 | 0.71 | -2.91 | 8.03 | 46.9
KHYG-1 (IL-2 2.5 ng/mL) [9] | 1.15 | -4.29 | -3.13 | 9.18 | 59.6
NK-92 (IL-2 2.5 ng/mL) [13] | -6.63 | -14.2 | 2.8 | 30.5 | 83.4
NK-YS (IL-2 2.5 ng/mL) [6] | -3.04 | -9.05 | -5.45 | 9.61 | 44.8
NKL (IL-2 2.5 ng/mL) [7] | -6.62 | -2.59 | 6.05 | 30.5 | 33.3
SNK-6 (IL-2 2.5 ng/mL) [12] | -15.9 | -23.8 | -10.8 | 8.45 | 5.08
YT (IL-2 2.5 ng/mL) [10] | -2.49 | -9.33 | -3.82 | 12.3 | 49.4
[1] | -9.29 | -6.42 | -4.58 | 4.67 | 5.9
[2] | -31.1 | -17.8 | -2.41 | -12.2 | 10.7
[3] | -7.97 | -4.09 | 6.27 | 8.93 | 4.45
[11] | -14.4 | -4.43 | 2.41 | -2.08 | 5.65
[14] | -5.4 | -5.23 | -8.91 | -7.52 | 4.06

Details | drug sensitivity score
DERL-7 (IL-2 2.5 ng/mL) [22] | 0.82
IMC-1 (IL-2 20 ng/mL) [18] | 0
KAI3 (IL-2 2.5 ng/mL) [19] | 3.78
KHYG-1 (IL-2 2.5 ng/mL) [23] | 4.78
NK-92 (IL-2 2.5 ng/mL) [27] | 8.66
NK-YS (IL-2 2.5 ng/mL) [20] | 3.86
NKL (IL-2 2.5 ng/mL) [21] | 5.94
SNK-6 (IL-2 2.5 ng/mL) [26] | 0
YT (IL-2 2.5 ng/mL) [24] | 4.52
[15] | 0
[16] | 0
[17] | 0
[25] | 0
[28] | 0
